# According to ChEMBL document CHEMBL1201862, “PubChem BioAssay data set” (2004):
#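 Cultured in 96-well plates, cells were exposed to test compound for 48 hours across five concentrations. GI50: concentration for 50% inhibition of growth.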 The source made the active and inactive calls. Cut-off read from the data, not from the text of the source: active = GI50 up to about 1.1 µM and inactive = higher.
# Experiments:
# Test in all cases: NCI anticancer screen, dose series, 48 h
# Hs-578T = tested on: Hs-578T
# T47D = tested on: T47D
# CCRF-CEM = tested on: CCRF-CEM
# SK-OV-3 = tested on: SK-OV-3
# 786-0 = tested on: 786-0
# CAKI-1 = tested on: CAKI-1
# RXF 393 = tested on: RXF 393
# SNB-75 = tested on: SNB-75
# COLO 205 = tested on: COLO 205
# SK-MEL-28 = tested on: SK-MEL-28
# HCT-15 = tested on: HCT-15
# UACC-257 = tested on: UACC-257
# SF-539 = tested on: SF-539
# PC-3 = tested on: PC-3
# LOX IMVI = tested on: LOX IMVI
# SF-268 = tested on: SF-268
# BT-549 = tested on: BT-549
# UO-31 = tested on: UO-31
# SK-MEL-5 = tested on: SK-MEL-5
# OVCAR-5 = tested on: OVCAR-5
# MDA-MB-435 = tested on: MDA-MB-435
# SNB-19 = tested on: SNB-19
# SN12C = tested on: SN12C
# ACHN = tested on: ACHN
# A498 = tested on: A498
# MDA-N = tested on: MDA-N
# HCT-116 = tested on: HCT-116
# SW-620 = tested on: SW-620
# M14 = tested on: M14
# NCI/ADR-RES = tested on: NCI/ADR-RES
# TK-10 = tested on: TK-10
# HCC 2998 = tested on: HCC 2998
# RPMI-8226 = tested on: RPMI-8226
# IGROV-1 = tested on: IGROV-1
# U-251 = tested on: U-251
# SK-MEL-2 = tested on: SK-MEL-2
# HT-29 = tested on: HT-29
# EKVX = tested on: EKVX
# NCI-H23 = tested on: NCI-H23
# HL-60 = tested on: HL-60
# A549 = tested on: A549
# MOLT-4 = tested on: MOLT-4
# OVCAR-8 = tested on: OVCAR-8
# SR = tested on: SR
# K562 = tested on: K562
# SF-295 = tested on: SF-295
# NCI-H226 = tested on: NCI-H226
# UACC-62 = tested on: UACC-62
# OVCAR-4 = tested on: OVCAR-4
# NCI-H522 = tested on: NCI-H522
# OVCAR-3 = tested on: OVCAR-3
# DU-145 = tested on: DU-145
# Malme-3M = tested on: Malme-3M
# HOP-92 = tested on: HOP-92
# KM12 = tested on: KM12
# MCF7 = tested on: MCF7
# NCI-H460 = tested on: NCI-H460
# HOP-62 = tested on: HOP-62
# MDA-MB-231 = tested on: MDA-MB-231
smiles,measurement,setting,value
O=C(Nc1ccc(C(F)(F)F)cc1)NC(F)(F)F,GI50,Hs-578T,> 100 µM (inactive)
same,GI50,T47D,> 100 µM (inactive)
same,GI50,CCRF-CEM,> 100 µM (inactive)
same,GI50,SK-OV-3,> 100 µM (inactive)
same,GI50,786-0,> 100 µM (inactive)
same,GI50,CAKI-1,34.5 µM (inactive)
same,GI50,RXF 393,> 100 µM (inactive)
same,GI50,SNB-75,> 100 µM (inactive)
same,GI50,COLO 205,> 100 µM (inactive)
same,GI50,SK-MEL-28,> 100 µM (inactive)
same,GI50,HCT-15,> 100 µM
same,GI50,UACC-257,> 100 µM (inactive)
same,GI50,SF-539,> 100 µM (inactive)
same,GI50,PC-3,> 100 µM (inactive)
same,GI50,LOX IMVI,> 100 µM (inactive)
same,GI50,SF-268,> 100 µM (inactive)
same,GI50,BT-549,> 100 µM (inactive)
same,GI50,UO-31,> 100 µM (inactive)
same,GI50,SK-MEL-5,> 100 µM (inactive)
same,GI50,OVCAR-5,> 100 µM (inactive)
same,GI50,MDA-MB-435,> 100 µM (inactive)
same,GI50,SNB-19,> 100 µM (inactive)
same,GI50,SN12C,> 100 µM (inactive)
same,GI50,ACHN,> 100 µM (inactive)
same,GI50,A498,> 100 µM (inactive)
same,GI50,MDA-N,> 100 µM (inactive)
same,GI50,HCT-116,> 100 µM (inactive)
same,GI50,SW-620,> 100 µM (inactive)
same,GI50,M14,> 100 µM (inactive)
same,GI50,NCI/ADR-RES,> 100 µM (inactive)
same,GI50,TK-10,35.9 µM (inactive)
same,GI50,HCC 2998,> 100 µM (inactive)
same,GI50,RPMI-8226,> 100 µM (inactive)
same,GI50,IGROV-1,> 100 µM (inactive)
same,GI50,U-251,> 100 µM (inactive)
same,GI50,SK-MEL-2,> 100 µM (inactive)
same,GI50,HT-29,> 100 µM (inactive)
same,GI50,EKVX,> 100 µM (inactive)
same,GI50,NCI-H23,> 100 µM (inactive)
same,GI50,HL-60,> 100 µM (inactive)
same,GI50,A549,> 100 µM (inactive)
same,GI50,MOLT-4,> 100 µM (inactive)
same,GI50,OVCAR-8,> 100 µM (inactive)
same,GI50,SR,> 100 µM (inactive)
same,GI50,K562,> 100 µM (inactive)
CCCCc1c(N(C)C)c(OC(C)=O)c(-c2cn(C)c3ccccc23)oc1=O,GI50,Hs-578T,43 µM (inactive)
same,GI50,T47D,29.6 µM (inactive)
same,GI50,CCRF-CEM,33.4 µM (inactive)
same,GI50,SK-OV-3,32.4 µM (inactive)
same,GI50,786-0,34.8 µM (inactive)
same,GI50,CAKI-1,30.7 µM (inactive)
same,GI50,RXF 393,41 µM (inactive)
same,GI50,SNB-75,25.1 µM (inactive)
same,GI50,COLO 205,19.1 µM (inactive)
same,GI50,SF-295,25.5 µM (inactive)
same,GI50,SK-MEL-28,21.7 µM (inactive)
same,GI50,HCT-15,19.4 µM
same,GI50,UACC-257,22.5 µM (inactive)
same,GI50,NCI-H226,8.71 µM (inactive)
same,GI50,SF-539,22.3 µM (inactive)
same,GI50,PC-3,18.6 µM (inactive)
same,GI50,UACC-62,14.1 µM (inactive)
same,GI50,SF-268,29.3 µM (inactive)
same,GI50,BT-549,28.3 µM (inactive)
same,GI50,UO-31,20.8 µM (inactive)
same,GI50,SK-MEL-5,13.8 µM (inactive)
same,GI50,OVCAR-5,31.6 µM (inactive)
same,GI50,MDA-MB-435,19.1 µM (inactive)
same,GI50,SNB-19,28.7 µM (inactive)
same,GI50,OVCAR-4,33.7 µM (inactive)
same,GI50,SN12C,24.5 µM (inactive)
same,GI50,ACHN,17.9 µM (inactive)
same,GI50,A498,28.8 µM (inactive)
same,GI50,MDA-N,18.1 µM (inactive)
same,GI50,HCT-116,17.3 µM (inactive)
same,GI50,SW-620,23.6 µM (inactive)
same,GI50,M14,16.8 µM (inactive)
same,GI50,NCI/ADR-RES,20.3 µM (inactive)
same,GI50,TK-10,40 µM (inactive)
same,GI50,NCI-H522,20.9 µM (inactive)
same,GI50,OVCAR-3,25.9 µM (inactive)
same,GI50,DU-145,54.6 µM (inactive)
same,GI50,U-251,22 µM (inactive)
same,GI50,SK-MEL-2,18.7 µM (inactive)
same,GI50,HT-29,15.5 µM (inactive)
same,GI50,EKVX,26.1 µM (inactive)
same,GI50,NCI-H23,22.5 µM (inactive)
same,GI50,Malme-3M,24.8 µM (inactive)
same,GI50,HL-60,17.7 µM (inactive)
same,GI50,HOP-92,< 0.01 µM (active)
same,GI50,KM12,14.2 µM (inactive)
same,GI50,A549,24.3 µM (inactive)
same,GI50,MCF7,13.1 µM (inactive)
same,GI50,NCI-H460,27 µM (inactive)
same,GI50,MOLT-4,47.9 µM (inactive)
same,GI50,SR,> 100 µM (inactive)
same,GI50,HOP-62,19.8 µM (inactive)
C/C(=N\NC(=O)c1ccncc1)c1cccc(C(F)(F)F)c1,GI50,Hs-578T,1.75 µM (inactive)
same,GI50,T47D,> 10 µM (inactive)
same,GI50,CCRF-CEM,> 10 µM (inactive)
same,GI50,SK-OV-3,> 10 µM (inactive)
same,GI50,CAKI-1,> 10 µM (inactive)
same,GI50,SNB-75,> 10 µM (inactive)
same,GI50,COLO 205,> 10 µM (inactive)
same,GI50,SK-MEL-28,> 10 µM (inactive)
same,GI50,HCT-15,> 10 µM
same,GI50,UACC-257,> 10 µM (inactive)
same,GI50,NCI-H226,> 10 µM (inactive)
same,GI50,SF-539,> 10 µM (inactive)
same,GI50,UACC-62,> 10 µM (inactive)
same,GI50,LOX IMVI,> 10 µM (inactive)
same,GI50,SF-268,> 10 µM (inactive)
same,GI50,BT-549,> 10 µM (inactive)
same,GI50,UO-31,> 10 µM (inactive)
same,GI50,SK-MEL-5,> 10 µM (inactive)
same,GI50,OVCAR-4,> 10 µM (inactive)
same,GI50,SN12C,> 10 µM (inactive)
same,GI50,MDA-N,> 10 µM (inactive)
same,GI50,SW-620,> 10 µM (inactive)
same,GI50,M14,> 10 µM (inactive)
same,GI50,NCI/ADR-RES,> 10 µM (inactive)
same,GI50,TK-10,> 10 µM (inactive)
same,GI50,HCC 2998,> 10 µM (inactive)
same,GI50,RPMI-8226,> 10 µM (inactive)
same,GI50,IGROV-1,> 10 µM (inactive)
same,GI50,MDA-MB-231,> 10 µM (inactive)
same,GI50,DU-145,> 10 µM (inactive)
same,GI50,U-251,> 10 µM (inactive)
same,GI50,HT-29,> 10 µM (inactive)
same,GI50,EKVX,> 10 µM (inactive)
same,GI50,NCI-H23,> 10 µM (inactive)
same,GI50,Malme-3M,> 10 µM (inactive)
same,GI50,HL-60,> 10 µM (inactive)
same,GI50,HOP-92,> 10 µM (inactive)
same,GI50,KM12,> 10 µM (inactive)
same,GI50,A549,> 10 µM (inactive)
same,GI50,MCF7,6.9 µM (inactive)
same,GI50,NCI-H460,> 10 µM (inactive)
same,GI50,MOLT-4,> 10 µM (inactive)
same,GI50,OVCAR-8,> 10 µM (inactive)
same,GI50,SR,> 10 µM (inactive)
same,GI50,HOP-62,> 10 µM (inactive)
same,GI50,K562,> 10 µM (inactive)
